# Test system: carrageenan foot edema
# Experiment: Rat Carrageenan Foot Pad Edema Test
# Assay type: in vivo, Male Sprague-Dawley rats
# Conditions: @ 10 mg/kg body weight, oral, 3 h after carrageenan injection, read-out: RAT PAW EDEMA % Inhibition
# Description: One hour later a subplantar injection of 0.1 mL of 1% solution of carrageenan/sterile 0.9% saline was administered and the volume of the injected foot was measured with a displacement plethysmometer connected to a pressure transducer with a digital indicator.
smiles,measurement,value
"CS(=O)(=O)c1ccc(C2=C(c3ccc(F)cc3)CCC2)cc1 [Example 1, 1-[2-(4-fluorophenyl)cyclopenten-1-yl]-4-(methylsulfonyl)benzene]",inhibition in vivo at 10 mg/kg,33%
